Columns and labels:
Muscarinic receptor = format: binding, Wistar rat; details: 3H-QNB radioligand, room temperature, 60 minutes; read-out: Radio receptor assay IC50
[1] = test system: acetylcholine-induced contraction of the isolated Guinea pig ileum; assay: Antagonizing activity against acetylcholine-induced contraction of the isolated Guinea pig ileum; set-up: species or system Guinea pig (Std Hartley); details: Cavia porcellus, 5 min; acetylcholine 1×10^-7 M, 37° C., 5 minutes equilibration; read-out: Guinea pig ileal contractility ED50 (50% inhibition of the maximal contraction)
Procedure: (b) Antagonizing activity against acetylcholine-induced contraction of the isolated Guinea pig ileum
A Guinea pig (Std Hartley, male, 250 g, Japan SLC) deprived of food for 24 hours was subjected to brain concussion and after exsanguination from the carotid artery, the ileum was isolated. An ileal strip, about 3 cm long, was prepared and suspended in a Magnus tube containing 20 ml of Tyrode solution. At a constant bath temperature of 37° C., a mixed gas (95% O2 -5% CO2) was bubbled through the bath. The sample was added and after 5 minutes of equillibration, acetylcholine (Daiichi Seiyaku, Japan) was added at a final concentration of 1×10^-7 M to induce contraction of the ileal strip. The contraction was recorded through an isotonic transducer (ME-4013, Suruga Electronics, Japan) on a recorder (Rectiholy 8K, Japan Electronics Sanei, Japan). The activity of the same was expressed in ED50 representing 50% inhibition of the maximal contraction.

mice = assay: Acute toxicity, oral administration in mice; format: in vivo; details: 100 mg/kg
Procedure: For assessment of the acute toxicity of TAN-1251, an oral administration experiment using TAN-1251A and B was performed in mice.

[2] = format: physicochemical
Source text: Below presented as the physicochemical properties of the respective species of TAN-1251 prepared in the Examples given hereinafter.

Row | Structure (SMILES) | IC50 (Muscarinic receptor) [nM] | IC50 [1] [nM] | toxic signs (acute toxicity) (mice) | Properties (basicity and liposolubility) [2]
1 | CC(C)=CCOc1ccc(C=C2CN(C)C3CN2C2(CCC(=O)CC2)C3)cc1 (stereo not shown) [Compound 1] | 5.7 | 8 | no toxic signs were observed | Basic and liposoluble
2 | CC(C)=CCOc1ccc(C=C2CN(C)C3CN2C2(CCC(=O)C(O)C2)C3)cc1 (stereo not shown) [Compound 2] | 0.13 | 13 | no toxic signs were observed | Basic and liposoluble
3 | CC(C)=CCOc1ccc(CC2=CN(C)C3CN2C2(CCC(=O)CC2)C3)cc1 (stereo not shown) [Compound 3] | – | – | – | Basic and liposoluble
4 | CC(C)=CCOc1ccc(CC2CN(C)C3CN2C2(CCC(=O)CC2)C3)cc1 (stereo not shown) [Compound 4] | – | – | – | Basic and liposoluble
